# Assay results reported in ChEMBL document CHEMBL3272295, “Drugs derived from cannabinoids. 5. delta6a,10a-Tetrahydrocannabinol and heterocyclic analogs containing aromatic side chains” (J Med Chem, 1976).
# Activity calls are given as the source filed them. The calls are words filed in the database; no cut-off is given here.
# Legend:
# Rattus norvegicus [1] = species on record: Rattus norvegicus; experiment: animal or person; conditions: Charles River, po, read-out: INH
# Description: Antidiarrheal activity in Charles River rat assessed as inhibition of castor oil-induced diarrhea by measuring protected animals at 2 mg/kg, po administered 1 hr prior to castor oil challenge measured after 1 hr relative to vehicle-treated control
# Rattus norvegicus [2] = species on record: Rattus norvegicus; experiment: animal or person; format: functional; conditions: Charles River, route oral
# Description: Antidiarrheal activity in Charles River rat assessed as inhibition of castor oil-induced diarrhea by measuring protected animals at 0.5 mg/kg, po administered 1 hr prior to castor oil challenge measured after 1 hr relative to vehicle-treated control
# Rattus norvegicus [3] = species on record: Rattus norvegicus; experiment: animal or person; format: functional; conditions: Charles River, route oral; remark: listed apart in the source
# Description: Antidiarrheal activity in Charles River rat assessed as inhibition of castor oil-induced diarrhea by measuring protected animals at 1 mg/kg, po administered 1 hr prior to castor oil challenge measured after 1 hr relative to vehicle-treated control
# Rattus norvegicus [4] = experiment: Antidiarrheal activity in Charles River rat assessed as inhibition of castor oil-induced diarrhea by measuring protected animals at 0.2 mg/kg, po administered for 5 days followed by 0.2 mg/kg, po on test day administered 1 hr prior to castor oil challenge measured after 1 hr relative to vehicle-treated control; format: functional
# Rattus norvegicus [5] = experiment: Antipsychotic activity in rat assessed as reduction of methamphetamine-induced hyperactivity at 1 mg/kg, po administered prior to methamphetamine challenge relative to vehicle-treated control; format: functional; parameters: scale not given: the % may be the effect or the level left
# Mus musculus [6] = experiment: Analgesic activity in po dosed mouse assessed as inhibition of acetic acid-induced writhing administered 30 mins prior to acetic acid challenge measured after 5 mins for 20 mins; format: functional
# Felis catus [7] = experiment: Hypnotic activity in cat assessed as increase in total sleep time at 0.5 mg/kg administered orally through diet measured for 12 hrs by EEG analysis; format: functional; conditions: route oral
# [8] = Acute toxicity in po dosed mouse; format: organism-based; conditions: in vivo
# Mus musculus [9] = experiment: Increase in footshock-induced fighting behavior in albino BALB/cJ mouse at 5 mg/kg, po after 30 to 90 mins; format: functional
# Rattus norvegicus [10] = experiment: Analgesic activity in po dosed Sprague-Dawley rat after 15 to 90 mins by tail flick test; format: functional
# Rattus norvegicus [11] = experiment: Antianxiety activity in Long-Evans rat assessed as reduction in motor activity at 10 mg/kg, po after 2 hrs relative to vehicle-treated control; format: functional; parameters: scale not given: the % may be the effect or the level left
# Felis catus [12] = experiment: Hypnotic activity in cat assessed as increase in non-REM sleep time at 0.5 mg/kg administered orally through diet measured for 12 hrs by EEG analysis; format: functional; conditions: route oral
# Rattus norvegicus [13] = experiment: Antianxiety activity in Long-Evans rat assessed as reduction in motor activity at 5 mg/kg, po after 2 hrs relative to vehicle-treated control; format: functional; parameters: scale not given: the % may be the effect or the level left
# Rattus norvegicus [14] = experiment: Antipsychotic activity in rat assessed as reduction of methamphetamine-induced hyperactivity at 5 mg/kg, po administered prior to methamphetamine challenge relative to vehicle-treated control; format: functional; parameters: scale not given: the % may be the effect or the level left
# Canis familiaris = experiment: Antianxiety activity in po dosed dog assessed as ataxia administered as single dose measured up to 24 hrs; format: functional; conditions: Canis lupus familiaris, read-out: MED
# Rattus norvegicus [15] = experiment: Increase in pepsin output in Sprague-Dawley rat at 50 mg/kg, po administered 30 mins prior to pylorus ligation measured after 4 hrs relative to control; format: functional
# Rattus norvegicus [16] = experiment: Antisecretory activity in Sprague-Dawley rat assessed as decrease in acid output at 50 mg/kg, po administered 30 mins prior to pylorus ligation measured after 4 hrs relative to control; format: functional; parameters: scale not given: the % may be the effect or the level left
# Rattus norvegicus [17] = experiment: Antianxiety activity in Long-Evans rat assessed as reduction in motor activity at 20 mg/kg, po after 2 hrs relative to vehicle-treated control; format: functional; parameters: scale not given: the % may be the effect or the level left
# Rattus norvegicus [18] = experiment: Antihypertensive activity in spontaneously hypertensive rat model assessed as reduction in blood pressure at 25 mg/kg, po after 24 hrs; format: functional; parameters: scale not given: the % may be the effect or the level left
# Mus musculus [19] = experiment: Antianxiety activity in albino BALB/cJ mouse assessed as reduction in footshock-induced fighting behavior at 10 mg/kg, po after 30 to 90 mins; format: functional; parameters: scale not given: the % may be the effect or the level left
# Rhesus monkey = experiment: Antianxiety activity in po dosed rhesus monkey assessed as antiagressive behavior measured every hour post dosing; format: functional; conditions: Macaca mulatta, read-out: MED
# Mus musculus [20] = experiment: Antidepressant activity in mouse assessed as potentiation of DOPA-induced effect at 5 mg/kg, po administered 4 hrs prior to DOPA challenge; format: functional, organism-based; parameters: dose 5 mg/kg
# Mus musculus [21] = experiment: Anticonvulsant activity in po dosed mouse assessed as dose required to protect 80% of animal measured after 1 to 4 hrs by audiogenic seizure test; format: functional
# Rattus norvegicus [22] = experiment: Antihypertensive activity in spontaneously hypertensive rat model assessed as reduction in blood pressure at 10 mg/kg, po after 24 hrs; format: functional; parameters: scale not given: the % may be the effect or the level left
# Felis catus [23] = experiment: Hypnotic activity in cat assessed as increase in non-REM sleep time at 1 mg/kg administered orally through diet measured for 12 hrs by EEG analysis; format: functional; conditions: route oral
# Felis catus [24] = experiment: Hypnotic activity in cat assessed as increase in total sleep time at 4 mg/kg administered orally through diet measured for 12 hrs by EEG analysis; format: functional; conditions: route oral
# Rattus norvegicus [25] = experiment: Antisecretory activity in Sprague-Dawley rat assessed as decrease in acidity at 50 mg/kg, po administered 30 mins prior to pylorus ligation measured after 4 hrs relative to control; format: functional; parameters: scale not given: the % may be the effect or the level left
# Felis catus [26] = experiment: Hypnotic activity in cat assessed as decrease in non-REM sleep time at 4 mg/kg administered orally through diet measured for 12 hrs by EEG analysis; format: functional; conditions: route oral
# Rattus norvegicus [27] = experiment: Antihypertensive activity in spontaneously hypertensive rat model assessed as reduction in blood pressure at 25 mg/kg, po after 3 hrs; format: functional; parameters: scale not given: the % may be the effect or the level left
# Rattus norvegicus [28] = experiment: Increase in pepsin concentration in Sprague-Dawley rat at 50 mg/kg, po administered 30 mins prior to pylorus ligation measured after 4 hrs relative to control; format: functional
# Felis catus [29] = experiment: Hypnotic activity in cat assessed as increase in total sleep time at 1 mg/kg administered orally through diet measured for 12 hrs by EEG analysis; format: functional; conditions: route oral
# Rattus norvegicus [30] = experiment: Increase in volume in Sprague-Dawley rat at 50 mg/kg, po administered 30 mins prior to pylorus ligation measured after 4 hrs relative to control; format: functional
# Rattus norvegicus [31] = experiment: Antihypertensive activity in spontaneously hypertensive rat model assessed as reduction in blood pressure at 10 mg/kg, po after 3 hrs; format: functional; parameters: scale not given: the % may be the effect or the level left
# Rattus norvegicus [32] = experiment: Antipsychotic activity in rat assessed as reduction of methamphetamine-induced hyperactivity at 10 mg/kg, po administered prior to methamphetamine challenge relative to vehicle-treated control; format: functional; parameters: scale not given: the % may be the effect or the level left
compound,measurement,setting,value
CN1CC[C@]23c4c5ccc(O)c4O[C@H]2[C@@H](O)C=C[C@H]3[C@H]1C5,inhibition in vivo at 2 mg/kg,Rattus norvegicus [1],50%
same,inhibition in vivo at 0.5 mg/kg,Rattus norvegicus [2],0%
same,inhibition in vivo at 1 mg/kg,Rattus norvegicus [3],30%
CCOC(=O)C1(c2ccccc2)CCN(CCC(C#N)(c2ccccc2)c2ccccc2)CC1 [DIPHENOXYLATE],inhibition in vivo at 0.2 mg/kg,Rattus norvegicus [4],90%
C#CCN1CCC2=C(C1)c1c(O)cc(C(C)C(C)CCc3ccc(F)cc3)cc1OC2(C)C (stereo unspecified),Activity,Rattus norvegicus [5],23%
same,ED50,Mus musculus [6],4.4 mg/kg
same,Time,Felis catus [7],58 min
same,LD50,[8],≥ 1000 mg/kg
same,Activity,Mus musculus [9],30%
same,inhibition in vivo at 0.5 mg/kg,Rattus norvegicus [2],0%
same,ED50,Rattus norvegicus [10],8.3 mg/kg
same,Activity,Rattus norvegicus [11],73%
same,Time,Felis catus [12],60 min
same,Activity,Rattus norvegicus [13],59%
same,Activity,Rattus norvegicus [14],53%
same,minimal effective dose,Canis familiaris,10 mg/kg
CCCCCc1cc(O)c2c(c1)OC(C)(C)[C@@H]1CCC(C)=C[C@@H]21 [DRONABINOL],Activity,Rattus norvegicus [15],8.9%
same,ED50,Mus musculus [6],43 mg/kg
same,LD50,[8],≥ 1000 mg/kg
same,Activity,Rattus norvegicus [16],7.3%
same,Activity,Rattus norvegicus [17],72%
same,inhibition in vivo at 0.5 mg/kg,Rattus norvegicus [2],0%
same,Activity,Rattus norvegicus [18],21%
same,Activity,Mus musculus [19],68%
same,minimal effective dose,Rhesus monkey,1 mg/kg
same,Activity,Mus musculus [20],Active
same,Activity,Mus musculus [21],20 mg/kg
same,Activity,Rattus norvegicus [22],8%
same,Time,Felis catus [23],1 min
same,Time,Felis catus [24],17 min
same,Activity,Rattus norvegicus [13],14%
same,Activity,Rattus norvegicus [14],15%
same,Activity,Rattus norvegicus [25],7.5%
same,Time,Felis catus [26],-3 min
same,Activity,Rattus norvegicus [27],39%
same,Activity,Rattus norvegicus [28],8.2%
same,minimal effective dose,Canis familiaris,0.5 mg/kg
same,Time,Felis catus [29],29 min
same,Activity,Rattus norvegicus [30],0.7%
same,Activity,Rattus norvegicus [31],6%
same,Activity,Rattus norvegicus [32],41%
